US20250320213A1, “Nitrogen-Containing Heterocyclic Compounds” (Pfizer Inc., priority 2024, published 2025)

Key:
STAT6 = molecular target: T1, STAT6 (Homo sapiens, UniProt P42226); experiment: STAT6 Reporter Luciferase Assay (IL-13 stimulated HaCaT keratinocyte NanoLuc reporter cells); format: cell-based; conditions: STAT6 NanoLuc luciferase reporter, IL-13 stimulated HaCaT keratinocyte cells; read-out: Reporter EC50
T1 construct: stably transfected HaCaT keratinocyte cell line, which expresses NanoLuc luciferase reporter gene under the transcriptional control of the STAT6 responsive promoter; endogenous in cells; host or cells: HaCaT keratinocyte reporter cell line (stably transfected with a NanoLuc reporter)
T1 sequence (P42226 1-847): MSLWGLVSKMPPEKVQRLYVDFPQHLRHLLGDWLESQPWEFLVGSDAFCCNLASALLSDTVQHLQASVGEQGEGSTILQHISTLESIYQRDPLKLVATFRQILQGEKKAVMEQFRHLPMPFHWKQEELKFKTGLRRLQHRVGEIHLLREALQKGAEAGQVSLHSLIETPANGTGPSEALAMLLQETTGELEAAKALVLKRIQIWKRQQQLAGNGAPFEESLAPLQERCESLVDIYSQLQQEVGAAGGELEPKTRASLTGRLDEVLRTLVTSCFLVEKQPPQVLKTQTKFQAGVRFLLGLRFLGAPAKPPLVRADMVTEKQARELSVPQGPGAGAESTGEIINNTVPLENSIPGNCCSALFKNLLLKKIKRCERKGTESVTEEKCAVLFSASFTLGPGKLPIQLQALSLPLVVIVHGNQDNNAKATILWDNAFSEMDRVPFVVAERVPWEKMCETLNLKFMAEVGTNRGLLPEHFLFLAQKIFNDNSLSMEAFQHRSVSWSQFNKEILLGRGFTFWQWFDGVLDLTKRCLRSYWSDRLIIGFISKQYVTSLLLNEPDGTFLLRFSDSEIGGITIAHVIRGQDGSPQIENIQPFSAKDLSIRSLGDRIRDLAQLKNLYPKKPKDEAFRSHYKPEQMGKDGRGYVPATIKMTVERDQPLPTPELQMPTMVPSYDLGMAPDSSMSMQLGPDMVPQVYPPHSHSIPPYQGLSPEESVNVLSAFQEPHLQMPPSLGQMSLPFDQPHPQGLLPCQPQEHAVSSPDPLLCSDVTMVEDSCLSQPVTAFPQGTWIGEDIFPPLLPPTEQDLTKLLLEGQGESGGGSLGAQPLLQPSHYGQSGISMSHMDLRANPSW
Method in brief: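 Stably transfected HaCaT cells carrying NanoLuc under the STAT6-responsive IL-13Ra2 promoter were pre-treated with compound (11-point, 4-fold series, duplicate) for 2 h at 37 °C, then stimulated with 0.12 nM IL-13 for 4 h. Nano-Glo luminescence was read after 15 min.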

[1] = test system: CCL17 secretion in peripheral human whole blood; experiment: Human Whole Blood (HWB) CCL17 TR-FRET Assay (IL-13 stimulated CCL17 secretion); format: cell-based; conditions: Homo sapiens, 48 h, inhibition of CCL17 secretion in human whole blood, 10 ng/mL IL13, 48 hours
Method in brief: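 Heparinized human whole blood was preincubated with compound (11-point, 3-fold series) for 2 h at 37°C, then stimulated with IL-13 (10 ng/mL final) for 48 h. Serum CCL17 was measured by TR-FRET sandwich immunoassay (665/615 nm ratio) after 16 h at room temperature, giving IC50.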

| SMILES | EC50 (STAT6) | IC50 [1] |
| --- | --- | --- |
| Cc1ccnn1-c1ccc(N2CCc3c(c(C(=O)NCc4ccc(NC(=O)N(C)C)cc4)nn3C(C)C)C2)nc1 [Example 41, N-(4-(3,3-Dimethylureido)benzyl)-1-isopropyl-5-(5-(5-methyl-1H-pyrazol-1-yl)pyridin-2-yl)-4,5,6,7-tetrahydro-1H-pyrazolo[4,3-c]pyridine-3-carboxamide] | 3 nM | 93 nM |
| CC(C)n1nc(C(=O)NCc2ccc(-c3nccc(=O)[nH]3)cc2)c2c1CCN(c1ccc(C(=O)N(C)C)cn1)C2 [Example 43, 5-(5-(Dimethylcarbamoyl)pyridin-2-yl)-1-isopropyl-N-(4-(6-oxo-1,6-dihydropyrimidin-2-yl)benzyl)-4,5,6,7-tetrahydro-1H-pyrazolo[4,3-c]pyridine-3-carboxamide] | 286 nM | 1300 nM |
| CC(C)n1nc(C(=O)NCc2ccc(-c3cccc(=O)[nH]3)cc2)c2c1CCN(c1ccc(C(=O)N(C)C)cn1)C2 [Example 44, 5-(5-(dimethylcarbamoyl)pyridin-2-yl)-1-isopropyl-N-(4-(6-oxo-1,6-dihydropyridin-2-yl)benzyl)-4,5,6,7-tetrahydro-1H-pyrazolo[4,3-c]pyridine-3-carboxamide] | 503 nM | 5400 nM |
| CN(C)C(=O)Nc1ccc(CNC(=O)c2nn(C3CC3)c3c2CN(c2ccc(-c4nccn4C)cn2)CC3)cc1 [Example 46, 1-cyclopropyl-N-(4-(3,3-dimethylureido)benzyl)-5-(5-(1-methyl-1H-imidazol-2-yl)pyridin-2-yl)-4,5,6,7-tetrahydro-1H-pyrazolo[4,3-c]pyridine-3-carboxamide] | 9 nM | 110 nM |
| CNC(=O)c1ccc(CNC(=O)c2csc3c2CN(c2ccc(C(=O)N(C)C)cn2)CC3)cc1 [Example 48, 5-(5-(dimethylcarbamoyl)pyridin-2-yl)-N-(4-(methylcarbamoyl)benzyl)-4,5,6,7-tetrahydrothieno[3,2-c]pyridine-3-carboxamide] | 952 nM | 3960 nM |
| C[C@@H]1Cc2c(c(C(=O)NCc3ccc(NC(=O)N(C)C)cc3)nn2C)CN1c1ccc(C(=O)N(C)C)cn1 [Example 50, (R)-5-(5-(dimethylcarbamoyl)pyridin-2-yl)-N-(4-(3,3-dimethylureido)benzyl)-1,6-dimethyl-4,5,6,7-tetrahydro-1H-pyrazolo[4,3-c]pyridine-3-carboxamide] | 35 nM | 151 nM |
| C[C@H]1Cc2c(c(C(=O)NCc3ccc(NC(=O)N(C)C)cc3)nn2C)CN1c1ccc(C(=O)N(C)C)cn1 [Example 51, (S)-5-(5-(dimethylcarbamoyl)pyridin-2-yl)-N-(4-(3,3-dimethylureido)benzyl)-1,6-dimethyl-4,5,6,7-tetrahydro-1H-pyrazolo[4,3-c]pyridine-3-carboxamide] | 4 nM | 30 nM |
| CC1CCC(=O)N1c1ccc(N2CCc3c(c(C(=O)NCc4ccc(NC(=O)N(C)C)cc4)nn3C(C)C)C2)nc1 (stereo not shown) [Example 56, N-(4-(3,3-dimethylureido)benzyl)-1-isopropyl-5-(5-(2-methyl-5-oxopyrrolidin-1-yl)pyridin-2-yl)-4,5,6,7-tetrahydro-1H-pyrazolo[4,3-c]pyridine-3-carboxamide] | 13 nM | 369 nM |
| CC1CCN(c2ccc(N3CCc4c(c(C(=O)NCc5ccc(NC(=O)N(C)C)cc5)nn4C(C)C)C3)nc2)C1=O (stereo not shown) [Example 61, N-(4-(3,3-dimethylureido)benzyl)-1-isopropyl-5-(5-(3-methyl-2-oxopyrrolidin-1-yl)pyridin-2-yl)-4,5,6,7-tetrahydro-1H-pyrazolo[4,3-c]pyridine-3-carboxamide] | 75 nM | 2590 nM |
| CC(C)n1nc(C(=O)NCc2ccc(NC(=O)N(C)C)cc2)c2c1CCN(c1ccc(-n3ccnn3)cn1)C2 [Example 64, 5-(5-(1H-1,2,3-triazol-1-yl)pyridin-2-yl)-N-(4-(3,3-dimethylureido)benzyl)-1-isopropyl-4,5,6,7-tetrahydro-1H-pyrazolo[4,3-c]pyridine-3-carboxamide] | 4 nM | 73 nM |
| CC(C)n1nc(C(=O)NCc2ccc(NC(=O)N(C)C)cc2)c2c1CCN(c1ccc(N3C[C@@H](C)CC3=O)cn1)C2 [Example 66, (S)-N-(4-(3,3-dimethylureido)benzyl)-1-isopropyl-5-(5-(4-methyl-2-oxopyrrolidin-1-yl)pyridin-2-yl)-4,5,6,7-tetrahydro-1H-pyrazolo[4,3-c]pyridine-3-carboxamide] | 13 nM | 89 nM |

More lines, in order of falling EC50 (STAT6), values ahead:

| EC50 (STAT6) | IC50 [1] | SMILES |
| --- | --- | --- |
| 1180 nM | > 30000 nM | Cc1ccn(-c2ccc(N3CCc4c(c(C(=O)NCc5ccc(NC(=O)N(C)C)cc5)nn4C(C)C)C3)nc2)n1 [Example 47, N-(4-(3,3-dimethylureido)benzyl)-1-isopropyl-5-(5-(3-methyl-1H-pyrazol-1-yl)pyridin-2-yl)-4,5,6,7-tetrahydro-1H-pyrazolo[4,3-c]pyridine-3-carboxamide] |
| 748 nM | > 30000 nM | CC(C)n1nc(C(=O)NCc2ccc(NC(=O)N(C)C)cc2)c2c1CCN(c1ccc(C(=O)NCc3ccc(NC(=O)N(C)C)cc3)cn1)C2 [Example 39, N-(4-(3,3-Dimethylureido)benzyl)-5-(5-((4-(3,3-dimethylureido)benzyl)carbamoyl)pyridin-2-yl)-1-isopropyl-4,5,6,7-tetrahydro-1H-pyrazolo[4,3-c]pyridine-3-carboxamide] |
| 208 nM | 28100 nM | CC(C)n1nc(C(=O)NCc2ccc(NC(=O)N(C)C)cc2)c2c1CCN(c1ccc(N3CCC4(CC4)C3=O)cn1)C2 [Example 65, N-(4-(3,3-dimethylureido)benzyl)-1-isopropyl-5-(5-(4-oxo-5-azaspiro[2.4]heptan-5-yl)pyridin-2-yl)-4,5,6,7-tetrahydro-1H-pyrazolo[4,3-c]pyridine-3-carboxamide] |
| 72 nM | 1640 nM | CC(C)n1nc(C(=O)NCc2ccc(-c3ncc[nH]3)cc2)c2c1CCN(c1ccc(N3CCCC3=O)cn1)C2 [Example 38, N-(4-(1H-imidazol-2-yl)benzyl)-1-isopropyl-5-(5-(2-oxopyrrolidin-1-yl)pyridin-2-yl)-4,5,6,7-tetrahydro-1H-pyrazolo[4,3-c]pyridine-3-carboxamide] |
| 38 nM | 324 nM | CC(C)n1nc(C(=O)NCc2ccc(-c3nnc[nH]3)cc2)c2c1CCN(c1ccc(C(=O)N(C)C)cn1)C2 [Example 40, N-(4-(4H-1,2,4-triazol-3-yl)benzyl)-5-(5-(dimethylcarbamoyl)pyridin-2-yl)-1-isopropyl-4,5,6,7-tetrahydro-1H-pyrazolo[4,3-c]pyridine-3-carboxamide] |
| 32 nM | 910 nM | CC(C)n1nc(C(=O)NCc2ccc(NC(=O)N(C)C)cc2)c2c1CCN(c1ccc(N3CCN(C)C3=O)cn1)C2 [Example 60, N-(4-(3,3-dimethylureido)benzyl)-1-isopropyl-5-(5-(3-methyl-2-oxoimidazolidin-1-yl)pyridin-2-yl)-4,5,6,7-tetrahydro-1H-pyrazolo[4,3-c]pyridine-3-carboxamide] |
| 10 nM | 136 nM | CN(C)C(=O)Nc1ccc(CNC(=O)c2nc(C(F)(F)F)n3c2CN(c2ccc(-c4nccn4C)cn2)CC3)cc1 [Example 42, N-(4-(3,3-Dimethylureido)benzyl)-7-(5-(1-methyl-1H-imidazol-2-yl)pyridin-2-yl)-3-(trifluoromethyl)-5,6,7,8-tetrahydroimidazo[1,5-a]pyrazine-1-carboxamide] |
| 9 nM | 64 nM | CN(C)C(=O)Nc1ccc(CNC(=O)c2nc(C(C)(F)F)n3c2CN(c2ccc(C(=O)N(C)C)cn2)CC3)cc1 [Example 52, 3-(1,1-difluoroethyl)-7-(5-(dimethylcarbamoyl)pyridin-2-yl)-N-(4-(3,3-dimethylureido)benzyl)-5,6,7,8-tetrahydroimidazo[1,5-a]pyrazine-1-carboxamide] |
| 4 nM | 50 nM | CC(C)n1nc(C(=O)NCc2ccc(NC(=O)N(C)C)cc2)c2c1CCN(c1ccc(-c3nccn3C)cn1)C2 [Example 45, N-(4-(3,3-Dimethylureido)benzyl)-1-isopropyl-5-(5-(1-methyl-1H-imidazol-2-yl)pyridin-2-yl)-4,5,6,7-tetrahydro-1H-pyrazolo[4,3-c]pyridine-3-carboxamide] |
